Source: patent US20180185325A1, “12H-BENZO[b]XANTHEN-12-ONES, COMPOSITIONS CONTAINING, AND USES OF, SAME” (Thesan Pharmaceuticals, Inc., priority 2015, published 2018)

Experiments:
CYP1A1 [1] = assay: EROD assay in HepG2 cells (cleavage of 7-ethoxyresorufin to resorufin); assay type: cell-based, human; details: human, probe 7-ethoxyresorufin (8 μM)
Method: (§1) HepG2 cells are seeded at between 1×10^4 and 2.5×10^4 cells/well in a 96-well microtitre plate. […] The formation of resorufin is quantified by fluorometry with a fluorescence plate reader. Fluorescence is determined at λex 570 nm and λem 590 nm. […] The remaining (i.e. all cells present at the beginning of analysis, since only supernatant is taken to assay EROD) live cells are subsequently utilized for the MIT cytotoxicity assay. […] The medium is carefully removed, then MIT formazan is solubilized by adding 200 μl of DMSO and subsequently mixed on a plate shaker. The absorbance is measured spectrophotometrically at 550 nm and background absorbance at 690 nm is subtracted.

CYP1A1 [2] = assay: EROD assay in human cultured sebocytes; assay type: cell-based; details: cultured sebocytes, probe 7-ethoxyresorufin (8 μM)
Method: (§2) Cells are seeded at between 1×10^4 and 2.5×10^4 cells/well in a 96-well microtitre plate. […] The formation of resorufin is quantified by fluorometry with a fluorescence plate reader. Fluorescence is determined at λex 570 nm and […]. The amount of resorufin is calculated from a standard curve generated using 0 to 1 μM resorufin in water at 34 log dilutions. The remaining (i.e. all cells present at the beginning of analysis, since only supernatant is taken to assay EROD) live cells are subsequently utilized for the MIT cytotoxicity assay. MIT is made up in serum-free medium at 5 mg/ml. then added to the cells giving a final concentration of 10% (0.5 mg/ml MIT final) then incubated for 2 h. The medium is carefully removed, then MTT formazan is solubilized by adding 200 μl of DMSO and subsequently mixed on a plate shaker. The absorbance is measured spectrophotometrically at 550 nm and background absorbance at 690 nm is subtracted. A standard curve generated using MTT formazan (dissolved in DMSO) from 0-200 μM (0, 2, 5, 10, 20, 50, 100, 200 μM) is used to calculate the final experimental values which are then expressed as (μmol resorufin/mol MIT formazan) or as fold-induction compared to solvent.

HepG2 cells = assay: MTT cytotoxicity assay in HepG2 cells; assay type: cell-based, human
Method: as §1

human sebocyte cells = assay: MTT cytotoxicity assay in human cultured sebocytes; assay type: cell-based
Method: as §2

CYP1A1 enzyme [3] = assay: EROD assay in HepG2 cells (cleavage of 7-ethoxyresorufin to resorufin); assay type: cell-based, human; details: 10 uM, 24 h
Method: as §1

CYP1A1 enzyme [4] = assay: EROD assay in human cultured sebocytes; assay type: cell-based; details: 10 uM, 24 h
Method: as §2

CYP1A1 mRNA = CYP1A1 mRNA assay in HepG2 cells (RT-PCR); assay type: cell-based, human; details: 10 uM
Method: HepG2 cells (American Type Culture Collection (ATCC), Manassas, Va.) were cultured using Eagle's minimal essential medium (ATCC), supplemented with 10% fetal calf serum (Invitrogen Life Technologies). […] Cells were plated at a seeding density of 3.8×10^5 cells per well on 6-well plates (Corning Costar, NY, U.S.A.). Cells were allowed to attach for 24 h in a 37° C. humidified incubator with a 5% CO2 atmosphere. Media was replaced with that containing test agents or vehicle (0.1% dimethylsulphoxide) and cells incubated for a further 24 h. Following the 24 h incubation with test agents, media was removed and RNA prepared using the Purelink RNA mini kit (ThermoFischer, Carlsbad, Calif.). Nucleic acid concentration was determined using a Nanodrop™ spectrophotometer (ThermoScientific) by measuring the OD at 260 nm and RNA purity was evaluated using the OD 260/280 nm ratio. 1 μg RNA was reverse transcribed using SuperScript®VILO™ (ThermoFischer) with cDNA synthesis performed using the following parameters: 10 min at 25° C., 2 h at 42° C., 5 min at 85° C. (deactivation) followed by a completion temperature of 4° C. […] Each sample (1 μl) was pipetted into a 96-well optical reaction plate (Applied Biosystems, Carlsbad, Calif.). […] Results were analyzed by calculating the fold change of CYP1A1 mRNA levels normalized to 18S rRNA (ΔΔCt) in compound treated cells or tissues compared to vehicle levels.

[5] = target: T1, Aryl Hydrocarbon Receptor (Homo sapiens, UniProt P35869); assay: AhR activation luciferase reporter in NHK-plox-XRE TATA-Luc cells; assay type: cell-based; details: 24 h, 1-10 uM
T1 construct: endogenous in cells; host or cells: Hep G2 cells stably transduced with the lentivector plox-XRE TATA-Luc (reporter only)
T1 sequence (P35869 11-848): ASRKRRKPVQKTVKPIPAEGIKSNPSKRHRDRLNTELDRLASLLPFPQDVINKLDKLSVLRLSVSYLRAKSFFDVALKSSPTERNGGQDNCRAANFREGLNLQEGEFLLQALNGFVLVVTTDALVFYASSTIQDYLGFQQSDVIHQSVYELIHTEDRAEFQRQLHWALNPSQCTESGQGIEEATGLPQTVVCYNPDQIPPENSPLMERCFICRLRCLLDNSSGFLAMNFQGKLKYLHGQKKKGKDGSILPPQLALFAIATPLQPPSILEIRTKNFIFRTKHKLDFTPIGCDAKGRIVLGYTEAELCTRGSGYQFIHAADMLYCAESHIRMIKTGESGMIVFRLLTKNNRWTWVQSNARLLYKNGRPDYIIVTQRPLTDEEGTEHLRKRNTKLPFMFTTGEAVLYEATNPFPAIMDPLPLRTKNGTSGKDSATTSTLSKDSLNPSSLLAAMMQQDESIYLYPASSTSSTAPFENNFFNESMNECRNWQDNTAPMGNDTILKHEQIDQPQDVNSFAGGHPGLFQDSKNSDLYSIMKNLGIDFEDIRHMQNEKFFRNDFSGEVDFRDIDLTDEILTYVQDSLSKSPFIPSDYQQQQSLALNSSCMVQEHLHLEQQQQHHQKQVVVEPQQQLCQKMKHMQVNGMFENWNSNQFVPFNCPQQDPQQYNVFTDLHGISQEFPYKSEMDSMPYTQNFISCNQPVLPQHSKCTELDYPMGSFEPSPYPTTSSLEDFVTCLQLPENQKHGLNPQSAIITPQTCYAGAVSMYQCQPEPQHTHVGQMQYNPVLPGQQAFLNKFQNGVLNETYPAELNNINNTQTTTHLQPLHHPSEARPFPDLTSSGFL
Method: AhR activation is also measured in human skin cells such as normal human keratinocytes (NHK cells) or A431 epidermoid cells stably transfected with the lentivector plox-XRE TATA-Luc. The NHK cells are cultured in a specific keratinocyte SFM medium (Gibco)+penicillin+streptomycin. At D0, the NHK cells are seeded into 6-well plates in a proportion of approximately […]. After 24 h, the medium is replaced with fresh medium and the cells are transduced with the lentivector plox-XRE TATA-Luc. After 48 h, the cells are subcultured and maintained in culture, and tested for their reactivity to 3-phenyl-1H-benzo[f]chromen-1-one. The tests are carried out using the luciferase reporter assay system kit from Promega. At D0, the cells are seeded at a density of approximately 60% confluence, and then treated, at D1, with the test substance diluted to various concentrations in the appropriate culture medium. At D2, the cells are lysed in CLB buffer, and the lysate is clarified by centrifugation for 5 min at 10 000 g. The luciferase activity is measured in 20 microliters of lysate as recommended by the supplier, using the luminoskan luminometer (Thermo). […] Data is processed and EC50's can be calculated from standard data monitoring software.

[6] = target: T1, Aryl Hydrocarbon Receptor; assay: AhR activation luciferase reporter in Hep G2-plox-XRE TATA-Luc cells; assay type: cell-based; details: 24 h, 1-10 uM
Method: AhR activation is measured in HEP G2 cells (hepatocytes, Hep G2 is a human liver carcinoma cell line) stably transfected with the lentivector plox-XRE TATA-Luc. The Hep G2 cells are cultured in a growing media consisting of DMEM (Gibco)+10% fetal bovine serum+penicillin+streptomycin. At D0, the Hep G2 cells are seeded into 12-well plates in proportions of approximately 30,000 cells/cm^2. After 24 h, the medium is replaced with fresh medium and the cells are transduced with the lentivector plox-XRE TATA-Luc. After 48 h, the cells are subcultured and maintained in culture, and tested for their reactivity to 3-phenyl-1H-benzo[f]chromen-1-one. The tests are carried out using the luciferase reporter assay system kit from Promega. At D0, the cells are seeded at a density of approximately 60% confluence, and then treated, at D1, with the test substance diluted to various concentrations in the appropriate culture medium. At […], the cells are lysed in CLB buffer, and the lysate is clarified by centrifugation for 5 min at 10 000 g. The luciferase activity is measured in 20 microliters of lysate as recommended by the supplier, using the luminoskan luminometer (Thermo). […] Data is processed and EC50's can be calculated from standard data monitoring software.

sebaceous glands = assay: Mouse ear assay for sebaceous gland prevalence; assay type: in vivo, C57BL/6J mice; details: topical 1% solution in DMSO:acetone 50:50, twice a day for five days, vs controls
Method: C57BL/6J male mice (Harlan Models), approximately 4-5 weeks of age, body weight 20-30 g, were acclimatized (individually housed) for 5 days in a 12 hour light/dark cycle standard laboratory environment (T=20-24° C., relative humidity 30-70%, 15-20 air changes per hour) with access to water and standard rodent chow (Harlan Tekiad 2014C supplied by Harlan Laboratories Models, S.L.) ad libitum. Animals were anesthetized with isoflurane and the test article (80 ul, 1% solution in DMSO:acetone 50:50) was administered to the outer surface of each of the ears of between 2 and 5 mice twice a day for five days by dermal application using a micropipette tip (a little volume of the solution was also applied on the inner side of the ears). All animals were monitored daily for reaction to the treatment, signs of illness, and behavioral changes. Body weights were recorded before the first administration and immediately prior to sacrifice. Approximately 12 to 16 hours after the final administration on day 5 the mice were sacrificed by i.p. injection of sodium pentobarbital (200 mg/kg) and the ears were collected. Each ear was sectioned into two halves. For each animal, one-half of one ear was fixed, in neutral phosphate-buffered 4% formaldehyde solution (4% formalin). This trimmed section of the ear was then processed, embedded in paraffin wax and stored at room temperature. […]

Row | SMILES | EC50 at 24 h (CYP1A1 [1]) | EC50 at 24 h (CYP1A1 [2]) | Toxicity threshold (HepG2 cells; human, 24 h) | Toxicity threshold (human sebocyte cells) | further results
1 | O=c1cc(-c2ccccc2)oc2ccc3ccccc3c12 [Compound D, 3-Phenyl-1H-benzo[f]chromen-1-one, reference compound] |  |  |  | 30 µM | % change vs. TCDD EROD (HepG2) at 10 uM (CYP1A1 enzyme [3]): 19%; % change vs. TCDD EROD (Sebs) at 10 uM (CYP1A1 enzyme [4]): 17%; Toxicity threshold (HepG2 cells; HepG2 cells, MTT): >50 µM; CYP1A1 mRNA fold change from vehicle (CYP1A1 mRNA; 24 h incubation, normalized to 18S rRNA): 596 fold
2 | O=c1c2cc(O)ccc2oc2ccc3ccccc3c12 [Compound L] | 600 nM | 500 nM | >100 µM | >50 µM | 
3 | COc1cccc2c(=O)c3c(ccc4ccccc43)oc12 [Compound O] |  |  | >100 µM | >100 µM | 
4 | O=c1cc(-c2ccccc2)oc2ccc3ccccc3c12 [3-phenyl-1H-benzo[f]chromen-1-one, 3-Phenyl-1H-benzo[f]chromen-1-one] |  |  |  |  | induction of luciferase activity [5]: a significant induction; induction of the luciferase activity [6]: a significant induction
5 | O=c1c2ccccc2oc2ccc3ccccc3c12 [Compound C] | 2500 nM | 200 nM | >30 µM | >30 µM | number of differentiated sebocytes (sebaceous glands): a reduction; number of sebaceous glands (sebaceous glands): a clear reduction; induction of CYP1A1 mRNA (in words) (CYP1A1 mRNA): potent inducer

Further lines, with some results ahead:

Row | EC50 at 24 h (CYP1A1 [1]) | EC50 at 24 h (CYP1A1 [2]) | SMILES | Toxicity threshold (HepG2 cells; human, 24 h) | Toxicity threshold (human sebocyte cells) | further results
6 | 500 nM | 500 nM | COc1ccc2oc3ccc4ccccc4c3c(=O)c2c1 [Compound K] | >100 µM | >50 µM | 
7 | 1500 nM |  | O=c1c2ccc(O)cc2oc2ccc3ccccc3c12 [Compound N] | >30 µM | >50 µM | 
8 | 3000 nM |  | COc1ccc2c(=O)c3c(ccc4ccccc43)oc2c1 [Compound M] | >30 µM | 50 µM | 
9 | 2000 nM | 200 nM | O=c1c2cccc(O)c2oc2ccc3ccccc3c12 [Compound P] | >100 µM | >100 µM | 
